{
  "source": "patent US20220402973A1",
  "about": "“POLYPEPTIDE FRAGMENT C (MP-C) AND USE THEREOF” (SHANGHAI LONGXIN BIOMEDICAL TECHNOLOGY CO., LTD., priority 2021, published 2022)",
  "format_in_all_cases": "in vivo, mice (male C57BL6)",
  "key": {"DSS-induced IBD in mice [1]": {"test_system": "DSS-induced IBD in mice", "experiment": "DAI scoring in DSS-induced acute IBD mouse model", "conditions": "DSS 2.5 wt % induced IBD mice, 50 μg/kg intragastric daily; for DAI (disease activity index) score: 7 days pre-administration then with DSS, end of experiment, mean±SD, model group 3.7±0.6, blank 0.0±0.0; for body weight of mice (effect of intervention): versus model group", "description": "(§1) The administration of a DSS solution with a specified concentration to mice can induce an acute IBD model characterized by diarrhea, hematochezia, ulcer, and granulocyte infiltration. Mice were randomly grouped according to body weights of the mice. 40 healthy male C57BL6 mice were divided into four groups each with 10 mice:\nblank control group: the mice were each intragastrically administered with water every day at a volume of 0.4 mL/20 g;\nmodel group: the mice were each intragastrically administered with a DSS aqueous solution of a mass fraction of 2.5 wt % consecutively for 7 days, where the DSS aqueous solution was freshly prepared and changed every day;\n(§2) MIMP positive control group: the mice were each given a pre-administration process for one week, that is, the mice were each intragastrically administered with an MIMP solution of a mass fraction of 50 μg/kg for the first 7 days, and then from day 8, the mice were each intragastrically administered with a DSS aqueous solution of a mass fraction of 2.5 wt % (at a volume of 0.4 mL/20 g) and an MIMP solution of a mass fraction of 50 μg/kg (at a volume of 0.4 mL/20 g) every day; and\nas §2, with “MP-C experimental” for “MIMP positive control”, “MP-C” for “MIMP”, “and” for “and then”, “day.” for “day; and”\nThe body weight changes of mice in each group were recorded every day to determine whether the acute IBD mouse model was successfully established.\n(§3) After DSS induction, the body weight changes, activities, and feces viscosity of the mice in each group were recorded every day. […] A mouse colon between an anus end to an ileocecal end was integrally collected, and a length of the colon was measured; and the colon was dissected along a longitudinal axis, feces therein was rinsed off, and then the colon was stored in 4% […] or frozen at −80° C.\n(§4) Experimental data in the above experimental method were expressed as (x±SD), the GraphPad Prism (ver. 8.0, GraphPad Software Inc., San Diego, Calif., USA) was used to plot a chart, the SPSS Program (ver. 25.0, SPSS Inc., Chicago, Ill., USA) was used for statistical test, and one-way ANOVA or independent two-sample t-test were used for significance test when the normality and homogeneity of variances were met. It was assumed that α=0.05, and P<0.05 indicates a statistically significant difference."}, "DSS-induced IBD in mice [2]": {"test_system": "DSS-induced IBD in mice", "experiment": "Colon length in DSS-induced acute IBD mouse model", "conditions": "DSS 2.5 wt % induced IBD mice; 50 μg/kg intragastric daily; mean±SD; model group 6.4±0.5, blank 9.5±0.5; in cm (unit assumed)", "description": "as §1, with “mice: […]” for “mice:”\nas §3\nas §4, with “It was assumed that α=0.05, and P<0.05 indicates a statistically significant difference.” left out"}, "DSS-induced IBD in mice [3]": {"test_system": "DSS-induced IBD in mice", "experiment": "Colonic histopathological evaluation (HE staining) in DSS-induced IBD mice", "conditions": "DSS 2.5 wt % induced IBD mice, 50 μg/kg intragastric daily, mean±SD, model group 5.6±0.7, blank 0.0±0.0", "excerpt": "as §1\nas §2, with “day; and […]” for “day; and”\nas §4, with “It was assumed that α=0.05, and P<0.05 indicates a statistically significant difference.” left out"}, "IFN-γ": {"test_system": "IFN-γ", "experiment": "ELISA of colonic IFN-γ expression in DSS-induced IBD mice", "conditions": "DSS 2.5 wt % induced IBD mice; 50 μg/kg intragastric daily; colon homogenate ELISA; mean±SD; model group 1223.1±41.5, blank 889.2±74.6", "description": "as §1, with “mice: […]” for “mice:”\nThe colon sample frozen at −80° C. in step 1.2 was placed in an EP tube, PBS and magnetic beads were added, and then the colon sample was subjected to ultrasonic homogenization in a tissue grinder; and a resulting homogenate was centrifuged, and a resulting supernatant was collected. […] Appropriate primary and secondary antibodies were used according to the instructions, an o-phenylenediamine (OPD) chromogenic solution was used for color development, and after the reaction was terminated, reading was conducted on a microplate reader at a wavelength of 490 nm, with three replicate wells for each sample.\nas §4, with “It was assumed that α=0.05, and P<0.05 indicates a statistically significant difference.” left out"}},
  "data": [
    {"molecule": "THTVGSYFVVQNGYVGAFSYALGNSEYAMSSPLGSLDGRTTRYNLL (THTVGSYFXVQNGYVGAFSXALGNSEYAMXSPLGSLDGRTTXYNLL; Sequence is synthesized; (9)..(9) Xaa can be Tyr, Val, Gly, Ser, or Gln; (20)..(20) Xaa can be Ser, Gln, Glu, or Tyr; (30)..(30) Xaa can be Asn, Thr, Ser, Pro, or Leu; (42)..(42) Xaa can be Gly, Arg, Met, or absent) [MP-C]", "values": [
      {"measurement": "DAI (disease activity index) score", "setting": "DSS-induced IBD in mice [1]", "result": "2.0±0.3"},
      {"measurement": "body weight of mice (effect of intervention)", "setting": "DSS-induced IBD in mice [1]", "result": "prevented the significant decrease in body weight"},
      {"measurement": "colon length", "setting": "DSS-induced IBD in mice [2]", "result": "9.2±0.2"},
      {"measurement": "colonic histopathologic score", "setting": "DSS-induced IBD in mice [3]", "result": "1.2±0.2"},
      {"measurement": "expression level of IFN-γ in colon", "setting": "IFN-γ", "result": "1068.4±61.2"}
    ]},
    {"molecule": "THTVGSYFSVQNGYVGAFSQALGNSEYAMNSPLGSLDGRTTMYNLLGVKYLFAREDQLKKQ (peptide, listed as Lactobacillus plantarum, positive control) THTVGSYFSVQNGYVGAFSQALGNSEYAMNSPLGSLDGRTTMYNLLGVKYLFAREDQLKKQ", "values": [
      {"measurement": "DAI (disease activity index) score", "setting": "DSS-induced IBD in mice [1]", "result": "2.7±0.7"},
      {"measurement": "body weight of mice (effect of intervention)", "setting": "DSS-induced IBD in mice [1]", "result": "prevented the significant decrease in body weight"},
      {"measurement": "colon length", "setting": "DSS-induced IBD in mice [2]", "result": "9.5±0.3"},
      {"measurement": "colonic histopathologic score", "setting": "DSS-induced IBD in mice [3]", "result": "1.4±0.7"},
      {"measurement": "expression level of IFN-γ in colon", "setting": "IFN-γ", "result": "1011.4±79.5"}
    ]}
  ]
}
